The record followed here is patent US20230047788A1, “COMPOSITIONS COMPRISING 5-CHOLESTEN-3, 25-DIOL, 3-SULFATE (25HC3S) OR PHARMACEUTICALLY ACCEPTABLE SALT THEREOF AND AT LEAST ONE CYCLIC OLIGOSACCHARIDE” (Virginia Commonwealth University, priority 2016, published 2023).

Series [1] concerns liver function markers ALT, AST, ALK, LDH. Nature of the series: Liver function markers in serum of mice overdosed with APAP (350 mg/kg). The settings on record: vehicle plus 25 mg/kg 25HC3S 0.5 hours after overdose, 24 hours after treatment. Format: in vivo, C57BL/6J mice. How it is done: The ability of 25HC3S to treat symptoms of APAP overdose was examined. 12-week-old male C57BL/6J mice were fasted overnight and injected (intraperitoneally) with APAP: 600 mg/kg (high dose) for mortality studies or 350 mg/kg (low dose) for liver function and gene studies. Control mice received only vehicle (20% (v/v) a propylene glycol, 4% (w/v) cyclodextrin (powdered hydroxypropyl beta cyclodextrin in sterile 10% (w/v) glucose.
(§1) A composition comprising 25 mg/kg of 25HC3S sodium salt in vehicle was administered intravenously to the experimental mice 0.5 hours after APAP administration. Mortality was monitored in the high dose mice. In the low dose mice, the liver function markers aspartate aminotransferase (AST), alanine aminotransferase (ALT), alkaline phosphatase (ALK) and lactate dehydrogenase (LDH), were measured in serum. Impacts on gene expression were determined by Quantitative Real-time PCR. Membrane potentials were measured using JC1 staining and flow cytometry.
One group of low dose mice received treatment with 25HC3S in vehicle 0.5 hours after the overdose. In this group, liver function markers were assessed 24 hours after treatment. […] However, in mice treated with vehicle alone, the values were […] and in mice treated with vehicle plus 25 mg/kg of 25HC3S, the values were near normal. The differences in the measured values were statistically significant.

Series [2] is classed as in vivo, Beagle dogs. The method, then: The objectives of this study were to evaluate the potential toxicity of 25HC3S when administered once daily by subcutaneous injection to Beagle dogs for 14 consecutive days. 25HC3S sodium salt in the vehicle (250 mg/mL hydroxypropyl-beta-cyclodextrin with 10 mM sodium phosphate buffer [approximate pH 7.6] in sterile water for irrigation) was administered via subcutaneous injection in the dorsoscapular area once daily for 14 consecutive days to 3 groups (Groups 2-4) of Beagle dogs. Dosage levels were 3, 10, and 30 mg/kg/day for Groups 2, 3, and 4, respectively. […] The dose volume was 1, 0.1, 0.33, and 1 mL/kg for Groups 1, 2, 3, and 4, respectively. Each group consisted of 4 males and 4 females. The animals were observed twice daily for mortality and moribundity. Clinical examinations (including injection site observations) were performed once daily for at least 6 days, including the day of randomization, prior to randomization, prior to dose administration, immediately following dose administration, and at approximately 2 hours following dose administration. Blood samples for toxicokinetic evaluation were collected from all animals prior to dosing (study day 0 only) and at 0.5, 1, 2, 4, 8, and 24 hours after dosing on study days 0 and 13.

Series [3] has as its system hepatic apoptosis-related genes. Nature of the series: Hepatic gene expression by RT2 Profiler PCR Array in APAP overdosed mice. The note with it: liver, APAP 350 mg/kg mice, 24 h. Format: in vivo, C57BL/6J mice. How it is done:
as §1
Changes in gene regulation in low dose mice 24 hours after the administration of vehicle and vehicle plus 25HC3S were investigated. The 12-week-old male C57BL/6J mice had received 350 mg/kg APAP via intraperitoneal injection and 30 min later received 7.6% glucose/H2O (C) or vehicle (20% PG/4% HCD/7.6% glucose, P) or 25HC3S (3S). Twenty four hours following APAP injection, liver tissue was harvested and total mRNA was extracted and analyzed using an RT^2 Profiler™ PCR Array assay. The listed genes are involved in apoptosis and/or immune system regulation.

With `C[C@H](CCCC(C)(C)O)[C@H]1CC[C@H]2[C@@H]3CC=C4C[C@@H](OS(=O)(=O)[O-])CC[C@]4(C)[C@H]3CC[C@]12C.[Na+]` [25HC3S, 5-cholesten-3, 25-diol, 3-sulfate], the “liver function markers ALT, AST and LDH” value in series [1] is “near normal”. The “survival to the scheduled necropsy” value in series [2] (Beagle dogs, sc 3, 10, 30 mg/kg/day, 14 days) is on record as “All animals survived”. Also, the injection site changes result in series [2] (dog, in vivo, sc) is on record as “no injection site changes appeared directly attributable”. Also, in series [2] (dog, in vivo, sc, 30 mg/kg/day), the “mean AUClast” value was 19,877 ng*hr/mL and the “mean C.” value was 7,753 ng/mL. Further, in series [3] (vs P (vehicle) group), the “Cd40 (NM_011611) gene expression, Fold vs P” value is recorded as −2.7 Fold; the “Fasl (NM_010177) gene expression, Fold vs P” value is recorded as −2.6 Fold; the “Gadd45a (NM_007836) gene expression, Fold vs P” value is −10.9 Fold; the “Nol3 (NM_030152) gene expression, Fold vs P” value came out at 3.6 Fold. For the same compound, in series [3] (vs P (vehicle) group), the “Pvr (NM_027514) gene expression, Fold vs P” value is −3.3 Fold and the “Tnf (NM_013693) gene expression, Fold vs P” value is −2.4 Fold. Besides, in series [3] (vs control (C) group), the “Apaf1 (NM_009741) gene expression, Fold vs C” value is on record as −2.2 Fold; the “Cd40 (NM_011611) gene expression, Fold vs C” value was −2.1 Fold; the “Fasl (NM_010177) gene expression, Fold vs C” value is −2.1 Fold; the “Gadd45a (NM_007836) gene expression, Fold vs C” value was −9.3 Fold. Also, in series [3] (vs control (C) group), the “Nol3 (NM_030152) gene expression, Fold vs C” value was 5.3 Fold; the “Pvr (NM_027514) gene expression, Fold vs C” value is on record as −3.9 Fold; the “Tnfrsf11b (NM_008764) gene expression, Fold vs C” value is recorded as −2.9 Fold.
